Assay results reported in patent publication US20200338056A1, “INDUCTION OF SENESCENCE USING PROTON PUMP INHIBITORS” (THE METHODIST HOSPITAL SYSTEM, priority 2016, published 2020).
“Also recorded” adds a separate entry of the source.

Legend:
[1] = system: Human microvascular endothelial cells (ECs); assay: Lysosomal pH by pHrodo Green/Red dextran fluorescence in live ECs; assay type: cell-based
Protocol: (§1) Cell culture. Human microvascular endothelial cells (ECs) purchased from Lonza (cat # CC-2543, Basel, Switzerland) were cultured continuously for three passages from passage (P) 4 to P6 in the presence of clinically relevant doses of esomeprazole or vehicle (DMSO) (Shin J M, Kim N. Pharmacokinetics and pharmacodynamics of the proton pump inhibitors. Journal of neurogastroenterology and motility. 2013; 19:25-35). All in vitro experiments were performed at P6 upon confluency. […]
(§2) Lysosomal studies. Cellular pH, lysosomal cathepsin B and protein aggregation were measured in live ECs using pHrodo™ Green/Red dextran, 10,000 MW dye (cat: P35368/P35372, MOLECULAR PROBES®, Life Technologies, Carlsbad, Calif.), Magic Red™ Cathepsin B Assay Kit (cat: 938, ImmunoChemistry Technologies LLC, Bloomington, Minn.) and PROTEOSTAT® Protein aggregation assay (cat: ENZ-51023-KP002, Enzo Life Sciences, Inc., Farmingdale, N.Y.). The pHrodo™ Green dextran when endocytosed permits visualization of endosomal pH, with an inverse non-linear relationship of fluorescence intensity to pH. […] Fluorescence images were taken using Olympus IX51 Inverted fluorescence microscope at 10× magnification and 40× for protein aggregation. All images were quantified using NIH ImageJ 1.47v software. […] Absorbance was measured using Tecan Infinite® M1000 PRO multimode reader at 405 nm (Tecan, Mannedorf, Switzerland).

[2] = system: Human microvascular endothelial cells (ECs); assay: Total nitrate/nitrite (NOx) by Griess colorimetric assay; assay type: cell-based; conditions: ECs treated chronically, vs vehicle
Protocol: as §1
(§3) Measurement of superoxide and nitric oxide. Superoxide and nitric oxide were measured in ECs using live cell imaging dyes; DHE (Molecular Probes® cat # D-1168, Eugene, Oreg.) for superoxide and DAF-2DA (Sigma cat #50277, St. Louis, Mo.) for nitric oxide measurement according to the published protocol (Yepuri G, et al., Positive crosstalk between arginase-ii and s6k1 in vascular endothelial inflammation and aging. Aging cell. 2012; 11:1005-1016). Several images per well were captured using Olympus IX51 Inverted fluorescence microscope. Relative fluorescence intensities of images were quantified using NIH ImageJ software. The total NO concentration (NOx) was determined using the Griess colorimetric assay as previously described (Ghebremariam Y T, et al., Fxr agonist int-747 upregulates ddah expression and enhances insulin sensitivity in high-salt fed dahl rats. PloS one. 2013; 8:e60653).

telomerase = assay: Telomeric repeat amplification protocol (TRAP) telomerase activity; assay type: cell-based, human; conditions: TRAP assay, esomeprazole and vehicle ECs
Protocol: Telomere length and telomerase activity. Telomere length in ECs was measured using monochrome multiplex qPCR ([…]) assay as described previously (Ramunas J, et al., Transient delivery of modified mrna encoding tert rapidly extends telomeres in human cells. FASEB journal: official publication of the Federation of American Societies for Experimental Biology. 2015; 29:1930-1939). The telomeric repeat amplification protocol (TRAP) was performed using TRAPeze® Telomerase Detection Kit (EMD Millipore Inc. cat # S7700, Darmstadt, Germany). Experiment was performed according to the manufacturer's instructions. In brief, ECs treated with esomeprazole or vehicle were collected, counted and total protein was isolated from 100,000 cells. The amount of lysate used per reaction was normalized to the amount of 1,000 cells for ECs and 500 cells for telomerase positive control (PC). In short, TRAP was performed at 30° C. for 30 minutes and resulting products were amplified in a 29 cycle PCR reaction. Heat inactivated (hi) lysate samples for each condition were used as internal negative controls.

[3] = system: Human microvascular endothelial cells (ECs); assay: RT2 Profiler PCR array, 331 genes from 5 pathways; assay type: cell-based; conditions: esomeprazole compared to vehicle (DMSO)
Protocol: (§4) Cell culture. Human microvascular endothelial cells (ECs) purchased from Lonza (cat # CC-2543, Basel, Switzerland) were cultured continuously for three passages from passage (P) 4 to P6 in the presence of clinically relevant doses of esomeprazole or vehicle (DMSO) (Shin J M, Kim N. Pharmacokinetics and pharmacodynamics of the proton pump inhibitors. Journal of neurogastroenterology and motility. 2013; 19:25-35). All in vitro experiments were performed at P6 upon confluency. ECs were cultured and maintained in EBM-2 Basal Medium (cat # CC-3156, Lonza, Basel, Switzerland) supplemented with EGM-2 MV SingleQuots™ Kit—growth factors, cytokines, and antibiotics (cat # CC-4147, Lonza, Basel, Switzerland).
(§5) Quantitative PCR and PCR array. Total RNA was isolated from cultured cells using PerfectPure RNA Cultured Cell Kit-50 from 5 PRIME (cat #2900319, San Francisco, Calif.) according to the manufacturer's instruction. […] Quantitative PCR (qPCR) was performed using Taqman gene expression assays (Applied Biosystems, Foster City, Calif.). All genes analyzed for expression (listed in the table below) were normalized to GAPDH expression and expressed as relative fold changes using the ΔCt method of analysis. Gene expression of shelterin complex genes was quantified using SYBR™ Green Real Time PCR master mix. […] Name, catalog numbers and genes detected by the arrays are listed below.

[4] = poor metabolizers (about 3% of whites, 23% of Asians); cited from earlier work
[5] = system: Human microvascular endothelial cells (ECs); assay: BrdU cell proliferation ELISA; assay type: cell-based; conditions: chronic exposure, 3 passages, vs vehicle
Protocol: as §4

shelterin complex = assay: Shelterin complex gene expression by SYBR Green RT-PCR; assay type: cell-based, human; conditions: vs vehicle
Protocol: as §4, §5

acid phosphatase = assay: Acid phosphatase activity assay, EC lysate; assay type: cell-based, human; conditions: ECs treated chronically, 5 and 10 μmol/L, P4-6, vs vehicle
Protocol: as §1, §2

[6] = system: Human microvascular endothelial cells (ECs); assay: Long term studies of endothelial histology (81 days after drug discontinued); assay type: cell-based; conditions: 5 or 10 μmol/L for 3 passages, then 81 days without drug, vs vehicle
Protocol: Long term studies of endothelial histology. After ECs were exposed to vehicle or ESO (5 or 10 uM) through 3 passages (P4-P6), the treatment with ESO or vehicle was discontinued when the cells reached confluency at P6. Subsequently the cells in all groups were maintained in endothelial growth medium which was routinely replaced with fresh medium every 48 hours for 81 days. Microphotographs were taken at regular intervals throughout, and on the final day of culture.

[7] = system: Human microvascular endothelial cells (ECs); assay: PROTEOSTAT protein aggregation assay in ECs; assay type: cell-based; conditions: ECs treated chronically, vs vehicle
Protocol: as §1, §2

[8] = system: Human microvascular endothelial cells (ECs); assay: Telomere length by monochrome multiplex qPCR (MMqPCR); assay type: cell-based; conditions: vs vehicle
Protocol: as §4
Telomere length and telomerase activity. Telomere length in ECs was measured using monochrome multiplex qPCR (MMqPCR) assay as described previously (Ramunas J, et al., Transient delivery of modified mrna encoding tert rapidly extends telomeres in human cells. FASEB journal: official publication of the Federation of American Societies for Experimental Biology. 2015; 29:1930-1939). The telomeric repeat amplification protocol (TRAP) was performed using TRAPeze® Telomerase Detection Kit (EMD Millipore Inc. cat # S7700, Darmstadt, Germany). […] In brief, ECs treated with esomeprazole or vehicle were collected, counted and total protein was isolated from 100,000 cells. […]

[9] = system: N-acetyl-β-d-glucosaminidase; assay: N-Acetyl-β-D-Glucosaminidase (NAG) activity assay, EC lysate; assay type: cell-based, human; conditions: ECs treated chronically, vs vehicle
Protocol: as §1, §2

[10] = system: Human microvascular endothelial cells (ECs); assay: Network formation assay on growth factor reduced matrigel (angiogenic capacity); assay type: cell-based; conditions: growth factor-depleted matrigel, vs vehicle
Protocol: as §4
Network formation assay to measure angiogenic capacity. In order to assess angiogenic capacity of ECs, growth factor reduced matrigel from BD Biosciences (cat #354230, San Jose, Calif.) was used. In brief, 24 well flat transparent plates were coated with 200 μl of matrigel/well and allowed to set at 37° C. for one hour. Subsequently, 1×10^5 cells/well were seeded and allowed to incubate for 16 hours at 37° C. Several images per well were obtained using Olympus IX51 Inverted fluorescence and bright field microscope. Network branching was quantified using NIH ImageJ software. Total length is equal to the summed length of all segments, branches and isolated branches not within the main network. […]

[11] = system: Human microvascular endothelial cells (ECs); assay: Superoxide anion by dihydroethidium (DHE) live cell imaging; assay type: cell-based; conditions: ECs treated chronically, vs vehicle
Protocol: as §1, §3

lysosomal cathepsin B = assay: Magic Red Cathepsin B assay in live ECs; assay type: cell-based, human; conditions: ECs treated chronically, 5 and 10 μmol/L, P4-6, vs vehicle
Protocol: as §1, §2

[12] = system: Human microvascular endothelial cells (ECs); assay: Nitric oxide by DAF-2DA live cell imaging; assay type: cell-based; conditions: ECs treated chronically, vs vehicle
Protocol: as §1, §3

[13] = system: Human microvascular endothelial cells (ECs); assay: Senescence-associated β-galactosidase (SA-β-gal) staining with SYTO cell count; assay type: cell-based
Protocol: as §4
Senescence-associated β-galactosidase (SA-β-gal) staining. Senescence of ECs was measured using the Cellular Senescence Assay kit from Cell Biolabs, Inc. (Cat: CBA-230, San Diego, Calif.). The protocol was performed according to the manufacturer's guide. Briefly, Ecs treated continuously for 3 passages with esomeprazole or vehicle were plated in a 6 well plate. Upon confluency, cells were initially fixed and later incubated with SA-β-gal working solution for 16 hours in a non-humidified CO2 free incubator at 37° C. After incubation the cells were counter stained with SYTO® GREEN fluorescent nucleic acid stain (Life Technologies). Several random images per well were taken using light and fluorescent microscope. The SA-β-gal positive cells were counted manually and total cell number per field was quantified using NIH ImageJ software.

[14] = system: Human microvascular endothelial cells (ECs); assay: Quantitative PCR (Taqman) gene expression in ECs; assay type: cell-based; conditions: RT-PCR, vs vehicle
Protocol: as §4
Quantitative PCR and PCR array. Total RNA was isolated from cultured cells using PerfectPure RNA Cultured Cell Kit-50 from 5 PRIME (cat #2900319, San Francisco, Calif.) according to the manufacturer's instruction. Complementary DNA (cDNA) was prepared using gScript™ cDNA SuperMix (Quanta BioSciences, Inc. cat #95048, Beverly, Mass.). Quantitative PCR (qPCR) was performed using Taqman gene expression assays (Applied Biosystems, Foster City, Calif.). All genes analyzed for expression (listed in the table below) were normalized to GAPDH expression and expressed as relative fold changes using the ΔCt method of analysis. Gene expression of shelterin complex genes was quantified using SYBR™ Green Real Time PCR master mix. Primers for genes related to shelterin complex were obtained from Integrated DNA Technologies, Inc. (San Jose, Calif.) and are listed in the table below. RT^2 Profiler PCR Array (Qiagen, Hilden, Germany) was used to assess expression of selected genes associated with specific cellular functions following manufacturer's instructions. Name, catalog numbers and genes detected by the arrays are listed below.

PAI-1 = assay: Western blot for PAI-1 protein expression; assay type: cell-based, human; conditions: vs vehicle
Protocol: as §4
Western blot analysis. Preparation of cell lysate, SDS-PAGE, transfer of proteins onto membrane and western blotting was performed as described previously (Rajapakse A G, et al., Hyperactive s6k1 mediates oxidative stress and endothelial dysfunction in aging: Inhibition by resveratrol. PloS one. 2011; 6:e19237.6). To detect PAI-1 protein expression anti-PAI-1 rabbit monoclonal antibody (Cell Signaling Technology, Inc. cat #11907S, Danvers, Mass.) was used and anti-α-Tubulin mouse monoclonal antibody (Sigma cat # T5168, St. Louis, Mo.) was used to normalize expression.

[15] = chronic treatment, at P6, vs vehicle

activity of acid phosphatase (acid phosphatase): reduced
Structure (SMILES): COc1ccc2nc([S@@+]([O-])Cc3ncc(C)c(OC)c3C)[nH]c2c1 [esomeprazole]
fluorescence intensity of pH-sensitive dye (pHrodo Green), inversely related to lysosomal pH ([1]; ECs, esomeprazole 5 and 10 μmol/L, 3 passages (P4-6), vs vehicle (DMSO)): significantly reduced | pHrodo red fluorescence (lysosomal distribution) ([1]; second pH-sensitive dye, ESO treated vs vehicle treated ECs): reduced; also recorded: qualitatively similar findings | total nitrate levels (Griess) [2]: decrease | telomerase expression or activity (telomerase): neither group of ECs manifested telomerase expression or activity | Expression of genes (PCR array) strongly up-regulated, Table 4 gene list ([3]; 52 genes listed AGTR1 to ZEB2): Expressin of genes (PCR array) that are strongly up-regulated (>2 fold) upon | Expression of genes (PCR array) strongly up regulated, Table 5 gene list ([3]; genes listed ACE to VWF): Expression of genes (PCR array) that are strongly up regulated (>2 fold) upon | increase in plasma concentration in CYP2C19 poor metabolizers [4]: 3 fold | cell proliferation (5-bromo-2′-deoxyuridine assay) [5]: dose-dependently impaired | expression of all 6 genes of the shelterin complex (TRF1, TRF2, POT1, RAP1, TIN2, TPP1) (shelterin complex): global downregulation | histology at the 3-month time point (cell loss, EndoMT) [6]: acceleration of EndoMT; also recorded: some cell loss or EndoMT | protein aggregates [7]: increase | telomere length [8]: significant decrease | N-acetyl-β-d-glucosaminidase activity [9]: does not impair; also recorded: No difference | angiogenic capacity of ECs (network formation) [10]: impaired | superoxide anion (dihydroethidium) [11]: more | activity of lysosomal cathepsin-B (lysosomal cathepsin B): reduced | NO generation (diamino fluorescein 2-diacetate staining) [12]: less | endothelial senescence / aging (overall finding) ([13]; chronic exposure of human ECs): accelerated | SA-β-gal-positive cells [13, 15]: increased | total cell count per microscopic field (SYTO-green staining) [13, 15]: decrease | expression of COL1A1 ([14]; EndoMT gene): upregulated | expression of SMAD3 ([14]; EndoMT gene): upregulated | expression of TWIST1 ([14]; EndoMT gene): upregulated | expression of DDAH1/2 ([14]; normalized to GAPDH): decrease | expression of eNOS ([14]; normalized to GAPDH): decrease | expression of iNOS ([14]; normalized to GAPDH): decrease | expression of von Willebrand factor [14]: decline | plasminogen activator inhibitor (PAI-1) message expression [14]: upregulated | expression of cell cycle inhibitor p21 gene ([14]; chronic treatment): increased | plasminogen activator inhibitor (PAI-1) protein expression (PAI-1): upregulated
